In ChEMBL document CHEMBL5614379, “The synthesis of 1,2,3-triazoles as binders of D-dopachrome tautomerase (D-DT) for the development of dual-targeting inhibitors” (Eur J Med Chem, 2024):
The source made the active and inactive calls. The rule behind the calls is not given here.

Legend:
[1] = target: T1, Macrophage migration inhibitory factor (Homo sapiens) (UniProt P14174); experiment: Non-competitive inhibition of MIF (unknown origin) at 12.5 uM using pyruvic acid as substrate incubated for 10 mins by absorbance based analysis
T1 sequence (whole entry): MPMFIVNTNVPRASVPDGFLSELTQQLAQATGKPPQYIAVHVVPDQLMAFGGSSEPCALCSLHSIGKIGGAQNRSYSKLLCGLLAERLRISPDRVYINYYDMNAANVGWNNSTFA

[2] = target: D-dopachrome decarboxylase (Homo sapiens, UniProt P30046); experiment: Inhibition of DDT (unknown origin) expressed in Escherichia coli by absorbance based analysis

Row | inhibition [1] | IC50 [2] | SMILES
1 | Active | – | COc1cccc2c1CC(NC(=O)c1cn(-c3ccc(Cl)c(C(F)(F)F)c3)nn1)CC2 (configuration not stated)
2 | – | 27 µM | O=C(O)c1cccc(-c2cc(C(=O)O)ncc2C(=O)O)c1
